Among the data in ChEMBL document CHEMBL3868599, “Strategy for designing selective α-l-rhamnosidase inhibitors: Synthesis and biological evaluation of l-DMDP cyclic isothioureas” (Bioorg Med Chem, 2017) are inhibition and IC50 values, retold here.

The subject of test [1] is Prunus dulcis. The test is described as follows: Inhibition of almond beta-glucosidase at 1000 uM using p-nitrophenyl-glycoside as substrate by spectrophotometric method.
Test [2] deals with T1, Tissue alpha-L-fucosidase (Bos taurus) (UniProt Q2KIM0).
T1 sequence (whole entry): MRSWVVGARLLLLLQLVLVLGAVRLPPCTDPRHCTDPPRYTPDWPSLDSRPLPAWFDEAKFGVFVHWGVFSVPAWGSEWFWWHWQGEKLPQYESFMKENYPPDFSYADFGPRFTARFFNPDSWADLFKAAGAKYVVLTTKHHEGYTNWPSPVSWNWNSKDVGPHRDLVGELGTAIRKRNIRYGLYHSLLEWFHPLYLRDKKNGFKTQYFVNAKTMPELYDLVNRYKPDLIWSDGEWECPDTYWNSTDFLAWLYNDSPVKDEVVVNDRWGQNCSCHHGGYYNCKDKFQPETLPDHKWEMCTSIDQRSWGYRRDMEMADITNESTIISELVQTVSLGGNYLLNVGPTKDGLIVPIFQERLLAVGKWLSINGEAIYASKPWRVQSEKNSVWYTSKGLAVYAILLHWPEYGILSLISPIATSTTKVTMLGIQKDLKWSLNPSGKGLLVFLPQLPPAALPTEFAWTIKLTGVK
In words: Inhibition of bovine kidney alpha-L-fucosidase at 1000 uM using p-nitrophenyl-glycoside as substrate by spectrophotometric method.

For test [3], the species on record is Bos taurus. In words: Inhibition of bovine liver beta-glucosidase at 1000 uM using p-nitrophenyl-glycoside as substrate by spectrophotometric method.
Test [4] concerns Aspergillus niger. The test is described as follows: Inhibition of Aspergillus niger amyloglucosidase assessed as D-glucose level at 1000 uM using maltose as substrate measured after 10 to 30 mins.
Test [5] is filed under the species Homo sapiens. The test is described as follows: Inhibition of human lysosomal beta-glucosidase at 1000 uM using 4-methylumbelliferyl-beta-D-glucopyranoside as substrate preincubated for 45 mins followed by substrate addition measured after 30 mins by fluorescence spectrophotometric method.
The subject of test [6] is Oryza sativa. In words: Inhibition of rice alpha-glucosidase at 1000 uM using p-nitrophenyl-glycoside as substrate by spectrophotometric method.
In test [7] the test system is Penicillium decumbens. In words: Inhibition of Penicillium decumbens alpha-L-rhamnosidase at 1000 uM using p-nitrophenyl-glycoside as substrate by spectrophotometric method.
Test [8] concerns Escherichia coli. The test is described as follows: Inhibition of Escherichia coli beta-glucuronidase at 1000 uM using p-nitrophenyl-glycoside as substrate by spectrophotometric method.
In test [9] the target is T2, Uncharacterized protein (Sus scrofa) (UniProt I3LIR5).
T2 sequence (whole entry): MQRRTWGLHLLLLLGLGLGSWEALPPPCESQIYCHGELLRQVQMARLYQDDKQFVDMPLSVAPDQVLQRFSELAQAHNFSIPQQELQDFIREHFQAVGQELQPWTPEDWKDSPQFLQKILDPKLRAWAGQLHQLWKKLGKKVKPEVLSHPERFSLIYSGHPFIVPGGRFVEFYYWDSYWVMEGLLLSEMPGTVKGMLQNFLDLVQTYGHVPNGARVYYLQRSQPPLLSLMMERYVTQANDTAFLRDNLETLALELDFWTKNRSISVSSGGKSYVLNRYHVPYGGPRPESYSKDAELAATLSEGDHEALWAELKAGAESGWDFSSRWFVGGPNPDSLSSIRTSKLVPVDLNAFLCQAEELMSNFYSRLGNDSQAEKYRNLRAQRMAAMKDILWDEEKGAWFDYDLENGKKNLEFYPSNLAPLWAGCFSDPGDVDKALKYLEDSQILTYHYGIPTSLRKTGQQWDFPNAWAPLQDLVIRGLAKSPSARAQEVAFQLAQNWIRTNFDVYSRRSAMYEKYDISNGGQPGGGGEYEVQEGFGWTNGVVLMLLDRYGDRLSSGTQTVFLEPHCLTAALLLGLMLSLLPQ
In words: Inhibition of porcine kidney trehalase assessed as D-glucose level at 1000 uM using maltose as substrate measured after 10 to 30 mins.

For test [10], the species on record is Rattus norvegicus. The test is described as follows: Inhibition of rat intestinal maltase assessed as D-glucose level at 1000 uM using maltose as substrate measured after 10 to 30 mins.
Test [11] concerns the target T3, Beta-galactosidase (Bos taurus, UniProt Q58D55).
T3 sequence (Q58D55 whole entry): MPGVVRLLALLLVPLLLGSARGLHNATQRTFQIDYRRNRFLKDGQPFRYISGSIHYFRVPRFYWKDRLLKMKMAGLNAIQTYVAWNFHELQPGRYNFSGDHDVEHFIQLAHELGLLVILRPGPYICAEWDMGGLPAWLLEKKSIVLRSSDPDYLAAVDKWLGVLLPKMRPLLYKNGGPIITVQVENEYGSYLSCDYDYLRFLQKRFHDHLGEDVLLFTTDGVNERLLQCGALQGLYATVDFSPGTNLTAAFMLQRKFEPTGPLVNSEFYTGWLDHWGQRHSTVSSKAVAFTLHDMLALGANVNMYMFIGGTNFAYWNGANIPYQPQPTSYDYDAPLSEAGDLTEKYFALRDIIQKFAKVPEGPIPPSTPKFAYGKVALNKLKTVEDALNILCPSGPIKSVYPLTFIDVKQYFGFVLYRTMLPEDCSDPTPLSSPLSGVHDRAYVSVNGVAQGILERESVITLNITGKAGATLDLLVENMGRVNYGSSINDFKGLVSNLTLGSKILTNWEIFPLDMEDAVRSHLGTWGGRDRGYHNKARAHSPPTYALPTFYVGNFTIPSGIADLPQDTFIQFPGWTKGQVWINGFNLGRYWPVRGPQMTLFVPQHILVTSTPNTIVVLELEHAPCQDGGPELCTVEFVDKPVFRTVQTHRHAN
The test is described as follows: Inhibition of bovine liver beta-galactosidase using p-nitrophenyl-glycoside as substrate by spectrophotometric method.

Test [12] is described as follows: Inhibition of Penicillium decumbens alpha-L-rhamnosidase using p-nitrophenyl-glycoside as substrate by spectrophotometric method.
The nature of test [13]: Inhibition of Penicillium decumbens alpha-L-rhamnosidase.
The nature of test [14]: Inhibition of bovine liver beta-glucosidase using p-nitrophenyl-glycoside as substrate by spectrophotometric method. Also on record: species or system Bos taurus.
Test [15] in a line: Inhibition of human lysosomal beta-glucosidase using 4-methylumbelliferyl-beta-D-glucopyranoside as substrate preincubated for 45 mins followed by substrate addition measured after 30 mins by fluorescence spectrophotometric method.
Test [16] deals with Prunus dulcis. In words: Inhibition of almond beta-glucosidase at 100 uM using p-nitrophenyl-glycoside as substrate by spectrophotometric method.
For test [17], the system named is Oryza sativa. The test is described as follows: Inhibition of rice alpha-glucosidase at 100 uM using p-nitrophenyl-glycoside as substrate by spectrophotometric method.
The species named for test [18] is Homo sapiens. In words: Inhibition of human lysosomal beta-glucosidase at 100 uM using 4-methylumbelliferyl-beta-D-glucopyranoside as substrate preincubated for 45 mins followed by substrate addition measured after 30 mins by fluorescence spectrophotometric method.
Test [19] concerns Aspergillus niger. The test is described as follows: Inhibition of Aspergillus niger amyloglucosidase assessed as D-glucose level at 100 uM using maltose as substrate measured after 10 to 30 mins.
In test [20] the test system is Escherichia coli. In words: Inhibition of Escherichia coli beta-glucuronidase at 100 uM using p-nitrophenyl-glycoside as substrate by spectrophotometric method.
Test [21] addresses T1, Tissue alpha-L-fucosidase (Bos taurus). The test is described as follows: Inhibition of bovine kidney alpha-L-fucosidase at 100 uM using p-nitrophenyl-glycoside as substrate by spectrophotometric method.
The species named for test [22] is Rattus norvegicus. The test is described as follows: Inhibition of rat intestinal maltase assessed as D-glucose level at 100 uM using maltose as substrate measured after 10 to 30 mins.
Test [23] addresses T2, Uncharacterized protein (Sus scrofa). In words: Inhibition of porcine kidney trehalase assessed as D-glucose level at 100 uM using maltose as substrate measured after 10 to 30 mins.
Test [24] is filed under the species Bos taurus. In words: Inhibition of bovine liver beta-glucosidase at 100 uM using p-nitrophenyl-glycoside as substrate by spectrophotometric method.
Test [25] has as its target T4, Beta-galactosidase (Bos taurus) (UniProt Q58D55).
T4 sequence (whole entry): T3 sequence (Q58D55 whole entry)
In words: Inhibition of bovine liver beta-galactosidase at 1000 uM using p-nitrophenyl-glycoside as substrate by spectrophotometric method.

Structures are written as SMILES.

For the compound `CCCCCCNC(=S)N1[C@H](CO)[C@@H](O)[C@H](O)[C@H]1CO`, the inhibition in test [1], in test [2], in test [3], in [4], in [5] and in test [6] was < 50% in each case. Moreover, the inhibition in test [7], in test [8], in test [9] and in test [10] was < 50% each time. Also, the half-inhibitory concentration (IC50) in [11] was 1000 µM.

The compound `OC[C@H]1[C@H](O)[C@@H](O)[C@@H]2CS/C(=N/Cc3ccc(Cl)cc3Cl)N12` displayed a half-inhibitory concentration (IC50) in [12] of 800 nM.

The compound `OC[C@H]1[C@H](O)[C@@H](O)[C@@H]2CS/C(=N/Cc3ccc(Cl)cc3)N12` gave a half-maximal inhibitory concentration (IC50) in test [12] of 890 nM. The IC50 values of the last two compounds are within 1.5-fold of each other.

For `OC[C@H]1[C@H](O)[C@@H](O)[C@@H]2CS/C(=N/Cc3cc(Cl)cc(Cl)c3)N12`, in test [12], the half-inhibitory concentration (IC50) is 700 nM. This IC50 and that of the compound before are within 1.5-fold of each other.

`OC[C@@H]1[C@H](O)[C@@H](O)[C@@H]2CCCCN12` registered a 50% inhibitory concentration (IC50) in test [13] of 3.3 µM.

As to `CCCCCCCCNC(=S)N1[C@H](CO)[C@@H](O)[C@H](O)[C@H]1CO`, the inhibition in test [1], in test [2], in [4], in [6], in test [7] and in test [8] was < 50% each time. In addition, the inhibition in test [9] and in test [10] was < 50% throughout. For the same compound, the IC50 in test [14] amounted to 689 µM; in test [15], 12 µM; in test [11] it was 414 µM.

Turning to `Cc1ccc(C/N=C2/SC[C@H]3[C@H](O)[C@@H](O)[C@H](CO)N23)cc1`, the IC50 in test [12] was found to be 1200 nM.

In test [13], `OC[C@H]1[C@@H](O)[C@@H](O)CN1Cc1ccccc1` returned an IC50 of 21 µM.

Compound `OC[C@H]1[C@H](O)[C@@H](O)[C@@H]2CS/C(=N/Cc3ccc(F)cc3)N12` returned an IC50 in [12] of 1800 nM.

In [12], `OC[C@H]1[C@H](O)[C@@H](O)[C@@H]2CS/C(=N/Cc3cccc(Cl)c3)N12` returned an IC50 of 700 nM. This IC50 lies about 2.6-fold lower than the previous one.

Turning to `CCCCCCNC(=S)N1[C@@H](CO)[C@H](O)[C@@H](O)[C@@H]1CO`, the inhibition in test [1], in test [2], in [3], in test [4], in test [5] and in test [6] was < 50% in each case. Further, the inhibition in test [7], in test [8], in test [9] and in test [10] was < 50% each time. Also, in [11], the IC50 was 572 µM.

Regarding `CCCCCCCCCCCC/N=C1/SC[C@H]2[C@H](O)[C@@H](O)[C@H](CO)N12`, the IC50 in test [14] came to 9.5 µM; in test [12] it was 460 nM; in test [11], 11 µM. Further, the inhibition in [16], in test [17], in test [18], in test [19], in test [20] and in test [21] was < 50% each time. Moreover, the inhibition in [22] and in test [23] was < 50% throughout.

With `CCCCCCCCCC/N=C1/SC[C@H]2[C@H](O)[C@@H](O)[C@H](CO)N12`, the inhibition in [16], in test [17], in [18], in test [19], in test [20] and in test [24] was < 50% in each case. The inhibition in test [21], in test [22] and in [23] was < 50% in each case. The IC50 came to 770 nM in [12] and 36 µM in [11].

In turn, `COc1ccc(C[C@@H]2NC[C@H](O)[C@H]2O)cc1` displayed a 50% inhibitory concentration (IC50) in test [13] of 3.7 µM.

In test [13], `C[C@@H]1C[C@H](O)[C@H]2[C@@H](O)[C@@H](O)CN2C1` returned an IC50 of 0.032 to 0.034 µM.

For `CCCCCCCCCCCC/N=C1/SC[C@@H]2[C@@H](O)[C@H](O)[C@@H](CO)N12`, the half-maximal inhibitory concentration (IC50) in test [14] worked out at 63 µM; in [15] it was 1 µM; in [12], 67000 nM; in test [11], 32 µM. The inhibition in [16], in test [17], in test [19], in [20], in test [21] and in test [22] was < 50% throughout. In addition, the inhibition in test [23] is < 50%.

In turn, `C[C@H]1N[C@@H](CO)[C@H](O)[C@H](O)[C@H]1O` came in with a half-maximal inhibitory concentration (IC50) in test [13] of 850 µM.

Consider `OC[C@H]1[C@H](O)[C@@H](O)[C@@H]2CS/C(=N/Cc3cc(Cl)c(Cl)c(Cl)c3)N12`, for which it took 450 nM to reach half-maximal inhibition in test [12] (IC50).

`COc1ccc(C/N=C2/SC[C@H]3[C@H](O)[C@@H](O)[C@H](CO)N23)cc1` had a 50% inhibitory concentration (IC50) in test [12] of 1600 nM.

`OC[C@H]1[C@@H](O)[C@H](O)[C@@H]2CS/C(=N/Cc3ccc(Cl)c(Cl)c3)N12` came in with an inhibition in [7] of 9.3%.

With `OC[C@H]1[C@H](O)[C@@H](O)[C@@H]2CS/C(=N/Cc3ccccc3Cl)N12`, the half-maximal inhibitory concentration (IC50) in [12] was found to be 2500 nM.

In [13], `OC[C@H](O)[C@@H]1NC[C@H](O)[C@@H]1O` came in with a half-maximal inhibitory concentration (IC50) of 52.8 µM.

`CCCCNC(=S)N1[C@H](CO)[C@@H](O)[C@H](O)[C@H]1CO`: the inhibition in [1], in test [2], in test [3], in test [4], in [5] and in [6] was < 50% each time. For the same compound, the inhibition in test [7], in test [8], in test [9], in [10] and in test [25] was < 50% throughout.
